Measurements: PMC9329436, “Optimization of the 4-anilinoquin(az)oline scaffold as epidermal growth factor receptor (EGFR) inhibitors for chordoma utilizing a toxicology profiling assay platform” (Scientific Reports, 2022)
Like-named read-outs stand apart in the source and are kept apart here.

Legend:
Assay type in all cases: biochemical
[1] = molecular target: 320 wild-type protein kinases (Homo sapiens, UniProt P54756); conditions: singlicate
From the text: (§1) Table S4. Profiling of two compounds at two concentrations against 320 wild-type protein kinases; singlicate measurement; Residual activities (% of control).

[2] = molecular target: 320 wild-type protein kinases (Homo sapiens, UniProt P53667); conditions: singlicate
From the text: as §1

[3] = molecular target: 320 wild-type protein kinases (Homo sapiens, UniProt P53355); conditions: singlicate
Sequence of 320 wild-type protein kinases (Homo sapiens, UniProt P53355) (P53355 whole entry): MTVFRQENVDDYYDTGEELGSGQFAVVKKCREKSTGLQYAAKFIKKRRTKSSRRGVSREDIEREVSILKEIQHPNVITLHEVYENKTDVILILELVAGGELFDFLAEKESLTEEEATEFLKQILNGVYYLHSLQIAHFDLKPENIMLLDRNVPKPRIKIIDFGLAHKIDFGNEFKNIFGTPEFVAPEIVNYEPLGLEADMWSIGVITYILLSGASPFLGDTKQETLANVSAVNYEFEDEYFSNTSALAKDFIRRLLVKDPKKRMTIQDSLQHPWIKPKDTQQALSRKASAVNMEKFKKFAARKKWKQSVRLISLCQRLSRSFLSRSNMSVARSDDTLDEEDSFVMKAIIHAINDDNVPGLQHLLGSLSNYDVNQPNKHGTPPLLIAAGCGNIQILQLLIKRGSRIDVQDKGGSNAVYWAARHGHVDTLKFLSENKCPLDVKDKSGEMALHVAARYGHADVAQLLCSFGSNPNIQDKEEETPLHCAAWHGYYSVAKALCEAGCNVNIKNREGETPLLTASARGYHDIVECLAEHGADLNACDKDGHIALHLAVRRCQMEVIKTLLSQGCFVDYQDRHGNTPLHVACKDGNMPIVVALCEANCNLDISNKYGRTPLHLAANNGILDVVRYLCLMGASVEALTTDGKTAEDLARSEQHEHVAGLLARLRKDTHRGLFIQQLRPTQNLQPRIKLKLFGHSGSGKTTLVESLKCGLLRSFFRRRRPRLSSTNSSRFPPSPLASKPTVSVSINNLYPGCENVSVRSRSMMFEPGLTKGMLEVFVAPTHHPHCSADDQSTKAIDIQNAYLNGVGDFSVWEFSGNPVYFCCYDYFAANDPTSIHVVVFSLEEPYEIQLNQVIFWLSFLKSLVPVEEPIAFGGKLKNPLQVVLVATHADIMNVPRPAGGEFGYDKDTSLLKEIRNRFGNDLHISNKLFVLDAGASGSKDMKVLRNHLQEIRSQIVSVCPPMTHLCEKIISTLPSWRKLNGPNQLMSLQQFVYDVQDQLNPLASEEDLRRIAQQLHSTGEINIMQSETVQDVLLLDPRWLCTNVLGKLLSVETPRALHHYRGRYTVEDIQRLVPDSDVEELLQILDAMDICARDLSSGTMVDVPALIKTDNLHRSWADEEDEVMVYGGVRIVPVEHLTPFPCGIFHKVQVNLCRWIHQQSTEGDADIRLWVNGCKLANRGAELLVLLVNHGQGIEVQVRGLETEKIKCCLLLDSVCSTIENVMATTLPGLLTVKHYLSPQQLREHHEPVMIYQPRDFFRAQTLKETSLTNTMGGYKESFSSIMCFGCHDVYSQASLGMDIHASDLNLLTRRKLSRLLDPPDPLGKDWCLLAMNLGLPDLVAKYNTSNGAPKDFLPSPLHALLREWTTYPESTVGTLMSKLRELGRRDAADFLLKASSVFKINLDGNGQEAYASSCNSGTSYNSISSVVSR
From the text: as §1

[4] = molecular target: T1, 320 wild-type protein kinases (Homo sapiens, UniProt O15530); conditions: singlicate
T1 sequence (O15530 1-556): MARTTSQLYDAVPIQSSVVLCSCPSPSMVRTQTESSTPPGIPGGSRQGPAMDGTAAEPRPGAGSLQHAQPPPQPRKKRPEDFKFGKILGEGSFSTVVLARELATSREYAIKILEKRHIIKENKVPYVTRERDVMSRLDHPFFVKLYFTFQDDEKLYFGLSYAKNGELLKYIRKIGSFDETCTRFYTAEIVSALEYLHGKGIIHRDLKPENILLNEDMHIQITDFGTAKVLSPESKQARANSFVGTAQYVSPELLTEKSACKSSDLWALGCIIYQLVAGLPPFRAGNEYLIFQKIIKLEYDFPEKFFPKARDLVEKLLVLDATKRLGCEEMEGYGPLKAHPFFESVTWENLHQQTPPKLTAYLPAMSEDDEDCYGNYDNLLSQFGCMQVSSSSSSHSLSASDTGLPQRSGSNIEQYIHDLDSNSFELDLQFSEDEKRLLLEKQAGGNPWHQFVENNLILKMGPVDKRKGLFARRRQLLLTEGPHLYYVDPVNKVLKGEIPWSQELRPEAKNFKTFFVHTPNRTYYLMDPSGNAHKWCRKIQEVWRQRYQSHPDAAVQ
From the text: as §1

[5] = molecular target: 320 wild-type protein kinases (Homo sapiens, UniProt P35916); conditions: kinase VEGF-R3, singlicate
Sequence of 320 wild-type protein kinases (Homo sapiens, UniProt P35916) (P35916 25-1363): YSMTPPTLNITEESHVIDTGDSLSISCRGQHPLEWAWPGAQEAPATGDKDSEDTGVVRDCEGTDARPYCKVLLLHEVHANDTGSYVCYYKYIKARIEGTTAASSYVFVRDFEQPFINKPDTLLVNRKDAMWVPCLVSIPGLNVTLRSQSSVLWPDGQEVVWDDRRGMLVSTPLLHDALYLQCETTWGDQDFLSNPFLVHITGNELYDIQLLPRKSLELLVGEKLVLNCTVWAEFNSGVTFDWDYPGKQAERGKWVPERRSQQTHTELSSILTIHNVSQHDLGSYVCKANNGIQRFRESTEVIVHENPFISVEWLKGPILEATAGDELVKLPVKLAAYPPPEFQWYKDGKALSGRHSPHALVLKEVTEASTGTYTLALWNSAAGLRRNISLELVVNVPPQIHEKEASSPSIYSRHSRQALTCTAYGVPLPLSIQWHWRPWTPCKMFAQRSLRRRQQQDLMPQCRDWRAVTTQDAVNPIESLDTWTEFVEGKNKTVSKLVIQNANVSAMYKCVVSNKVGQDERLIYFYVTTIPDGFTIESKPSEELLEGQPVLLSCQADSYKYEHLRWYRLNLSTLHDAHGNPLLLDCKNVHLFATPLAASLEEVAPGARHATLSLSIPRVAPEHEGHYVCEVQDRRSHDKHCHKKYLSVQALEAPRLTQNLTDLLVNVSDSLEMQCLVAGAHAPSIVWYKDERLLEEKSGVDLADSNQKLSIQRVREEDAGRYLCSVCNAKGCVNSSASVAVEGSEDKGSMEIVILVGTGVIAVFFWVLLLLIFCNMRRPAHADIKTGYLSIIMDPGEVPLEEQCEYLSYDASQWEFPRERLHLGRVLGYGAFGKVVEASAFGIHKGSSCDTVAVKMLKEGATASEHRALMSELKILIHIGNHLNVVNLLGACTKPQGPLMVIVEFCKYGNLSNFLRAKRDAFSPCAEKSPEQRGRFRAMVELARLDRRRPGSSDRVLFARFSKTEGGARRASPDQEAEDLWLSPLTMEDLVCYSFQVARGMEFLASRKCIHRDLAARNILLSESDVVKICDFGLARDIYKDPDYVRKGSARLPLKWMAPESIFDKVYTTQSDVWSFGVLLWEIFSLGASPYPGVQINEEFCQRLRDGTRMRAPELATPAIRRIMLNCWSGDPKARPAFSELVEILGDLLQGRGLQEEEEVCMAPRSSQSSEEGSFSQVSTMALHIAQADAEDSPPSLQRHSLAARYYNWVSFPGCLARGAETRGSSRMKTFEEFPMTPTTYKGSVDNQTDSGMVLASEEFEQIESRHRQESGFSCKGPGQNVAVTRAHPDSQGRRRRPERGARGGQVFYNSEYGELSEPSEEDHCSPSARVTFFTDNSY
From the text: as §1

[6] = molecular target: 320 wild-type protein kinases (Homo sapiens, UniProt Q15375); conditions: singlicate
Sequence of 320 wild-type protein kinases (Homo sapiens, UniProt Q15375) (Q15375 28-998): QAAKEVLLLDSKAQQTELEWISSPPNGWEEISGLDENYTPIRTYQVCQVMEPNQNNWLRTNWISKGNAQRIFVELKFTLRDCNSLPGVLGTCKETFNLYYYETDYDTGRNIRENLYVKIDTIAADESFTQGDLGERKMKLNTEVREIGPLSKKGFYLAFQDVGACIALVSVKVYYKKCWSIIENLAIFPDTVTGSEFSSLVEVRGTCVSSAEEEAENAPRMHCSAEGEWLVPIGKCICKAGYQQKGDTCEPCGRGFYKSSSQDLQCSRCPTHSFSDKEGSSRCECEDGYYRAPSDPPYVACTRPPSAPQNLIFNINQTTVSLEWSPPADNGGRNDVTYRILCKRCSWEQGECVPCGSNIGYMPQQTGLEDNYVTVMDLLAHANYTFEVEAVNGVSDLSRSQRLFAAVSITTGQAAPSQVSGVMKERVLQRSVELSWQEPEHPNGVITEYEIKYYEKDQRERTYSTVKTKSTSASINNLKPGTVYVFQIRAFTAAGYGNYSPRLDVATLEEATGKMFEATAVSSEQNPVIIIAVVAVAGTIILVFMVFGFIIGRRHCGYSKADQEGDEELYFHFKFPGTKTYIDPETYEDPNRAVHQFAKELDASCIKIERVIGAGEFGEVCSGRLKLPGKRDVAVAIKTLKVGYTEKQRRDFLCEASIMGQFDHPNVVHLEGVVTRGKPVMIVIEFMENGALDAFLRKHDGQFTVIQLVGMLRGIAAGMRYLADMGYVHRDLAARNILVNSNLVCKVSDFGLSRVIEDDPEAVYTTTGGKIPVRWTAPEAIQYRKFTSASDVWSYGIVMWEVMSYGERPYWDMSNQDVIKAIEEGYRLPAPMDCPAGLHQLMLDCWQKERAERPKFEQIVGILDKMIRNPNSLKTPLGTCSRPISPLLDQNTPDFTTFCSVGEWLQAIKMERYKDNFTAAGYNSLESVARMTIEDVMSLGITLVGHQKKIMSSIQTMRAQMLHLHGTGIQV
From the text: as §1

[7] = molecular target: T2, 320 wild-type protein kinases (Homo sapiens, UniProt Q9H093); conditions: kinase SNARK, singlicate
T2 sequence (Q9H093 1-628): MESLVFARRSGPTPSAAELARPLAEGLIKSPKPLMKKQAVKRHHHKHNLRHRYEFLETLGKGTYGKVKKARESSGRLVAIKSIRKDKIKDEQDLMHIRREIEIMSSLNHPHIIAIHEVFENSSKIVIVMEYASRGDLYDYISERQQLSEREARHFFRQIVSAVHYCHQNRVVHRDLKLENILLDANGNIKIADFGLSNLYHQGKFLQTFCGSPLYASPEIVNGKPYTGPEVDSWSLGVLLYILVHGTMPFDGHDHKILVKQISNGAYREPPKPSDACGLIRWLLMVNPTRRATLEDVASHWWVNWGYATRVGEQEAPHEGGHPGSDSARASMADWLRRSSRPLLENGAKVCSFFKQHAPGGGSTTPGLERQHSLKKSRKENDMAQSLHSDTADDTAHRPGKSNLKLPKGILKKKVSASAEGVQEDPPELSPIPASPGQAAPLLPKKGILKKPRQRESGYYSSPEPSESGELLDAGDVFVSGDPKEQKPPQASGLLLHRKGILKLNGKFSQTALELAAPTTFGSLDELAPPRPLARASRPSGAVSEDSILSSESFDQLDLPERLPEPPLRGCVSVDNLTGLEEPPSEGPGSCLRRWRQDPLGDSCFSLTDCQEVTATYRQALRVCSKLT
From the text: as §1

[8] = molecular target: T3, 320 wild-type protein kinases (Homo sapiens, UniProt P36896); conditions: ACV-R1B, singlicate
T3 sequence (P36896 24-505): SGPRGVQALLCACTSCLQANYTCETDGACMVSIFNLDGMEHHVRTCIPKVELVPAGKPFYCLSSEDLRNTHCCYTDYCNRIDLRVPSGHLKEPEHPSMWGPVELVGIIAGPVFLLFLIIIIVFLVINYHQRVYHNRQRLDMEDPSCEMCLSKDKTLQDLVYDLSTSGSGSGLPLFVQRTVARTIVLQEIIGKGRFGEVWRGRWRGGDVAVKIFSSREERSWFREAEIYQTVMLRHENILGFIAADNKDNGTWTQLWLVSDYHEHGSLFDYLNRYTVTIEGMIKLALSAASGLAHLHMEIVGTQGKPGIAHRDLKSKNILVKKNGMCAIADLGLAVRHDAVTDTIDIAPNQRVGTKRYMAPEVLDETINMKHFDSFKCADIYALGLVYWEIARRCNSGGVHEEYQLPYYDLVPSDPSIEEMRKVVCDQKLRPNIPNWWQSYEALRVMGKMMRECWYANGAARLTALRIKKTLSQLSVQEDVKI
From the text: as §1

[9] = molecular target: 320 wild-type protein kinases (Homo sapiens, UniProt P16234); conditions: PDGFR-alpha, singlicate
Sequence of 320 wild-type protein kinases (Homo sapiens, UniProt P16234) (P16234 24-1089): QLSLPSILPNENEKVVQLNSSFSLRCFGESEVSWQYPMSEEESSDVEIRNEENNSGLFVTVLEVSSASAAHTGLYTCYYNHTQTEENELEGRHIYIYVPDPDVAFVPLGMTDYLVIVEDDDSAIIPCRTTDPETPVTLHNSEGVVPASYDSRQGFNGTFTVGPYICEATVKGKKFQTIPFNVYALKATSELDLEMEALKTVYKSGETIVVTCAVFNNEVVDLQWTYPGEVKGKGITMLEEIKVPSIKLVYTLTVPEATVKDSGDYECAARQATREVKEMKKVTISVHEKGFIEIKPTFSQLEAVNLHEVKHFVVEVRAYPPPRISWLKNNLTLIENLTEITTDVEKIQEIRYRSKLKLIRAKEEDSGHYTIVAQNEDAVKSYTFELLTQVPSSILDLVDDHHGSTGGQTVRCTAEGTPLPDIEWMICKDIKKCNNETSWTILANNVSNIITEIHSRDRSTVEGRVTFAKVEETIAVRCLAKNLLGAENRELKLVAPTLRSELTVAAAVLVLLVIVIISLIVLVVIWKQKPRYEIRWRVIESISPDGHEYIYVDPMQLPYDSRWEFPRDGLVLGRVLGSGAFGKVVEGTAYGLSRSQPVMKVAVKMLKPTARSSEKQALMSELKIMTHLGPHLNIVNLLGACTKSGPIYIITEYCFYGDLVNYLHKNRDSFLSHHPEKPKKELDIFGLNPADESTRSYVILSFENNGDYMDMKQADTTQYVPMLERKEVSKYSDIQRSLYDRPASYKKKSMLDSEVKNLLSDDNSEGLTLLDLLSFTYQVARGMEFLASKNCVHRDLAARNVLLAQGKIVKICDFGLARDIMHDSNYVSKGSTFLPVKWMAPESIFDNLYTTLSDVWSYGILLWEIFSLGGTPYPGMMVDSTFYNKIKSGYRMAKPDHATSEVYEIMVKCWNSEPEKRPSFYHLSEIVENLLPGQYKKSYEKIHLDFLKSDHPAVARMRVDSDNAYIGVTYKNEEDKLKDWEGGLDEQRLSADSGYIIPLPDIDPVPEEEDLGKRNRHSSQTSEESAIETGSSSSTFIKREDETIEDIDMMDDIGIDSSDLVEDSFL
From the text: as §1

[10] = molecular target: 320 wild-type protein kinases (Homo sapiens, UniProt Q13164); conditions: singlicate
From the text: as §1

C#Cc1cc(Nc2ncnc3cc(I)ccc23)ccc1Cl [Compound 41] was tested, and the Residual activity ([1]; EPHA5, 1.0E-06 M) was 126 % of control, the Residual activity ([1]; EPHA5, 1.0E-07 M) was 128 % of control and the Residual activity ([2]; LIMK1, 1.0E-06 M) was 86 % of control. For the same molecule, the Residual activity ([2]; LIMK1, 1.0E-07 M) was 101 % of control, the Residual activity ([3]; DAPK1, 1.0E-06 M) was 112 % of control and the Residual activity ([3]; DAPK1, 1.0E-07 M) was 125 % of control. For the same molecule, the Residual activity ([4]; PDK1, 1.0E-06 M) was 77 % of control, the Residual activity ([4]; PDK1, 1.0E-07 M) was 96 % of control and the “Residual activity, VEGF-R3” value ([5]; assay conc. 1.0E-06 M) was 119 % of control. For the same molecule, the “Residual activity, VEGF-R3” value ([5]; assay conc. 1.0E-07 M) was 121 % of control, the Residual activity ([6]; EPHA7, 1.0E-06 M) was 94 % of control and the Residual activity ([6]; EPHA7, 1.0E-07 M) was 85 % of control. For the same molecule, the “Residual activity, SNARK” value ([7]; assay conc. 1.0E-06 M) was 83 % of control, the “Residual activity, SNARK” value ([7]; assay conc. 1.0E-07 M) was 101 % of control and the Residual activity ([8]; 1.0E-06 M) was 126 % of control. The Residual activity ([8]; 1.0E-07 M) was 105 % of control, the Residual activity ([9]; 1.0E-06 M) was 117 % of control and the Residual activity ([9]; 1.0E-07 M) was 118 % of control. The Residual activity ([10]; ERK5, 1.0E-06 M) was 74 % of control and the Residual activity ([10]; ERK5, 1.0E-07 M) was 92 % of control.

For C#Cc1cc(Nc2ncnc3cc(OC)c(OC)cc23)ccc1Cl [Compound 45], the Residual activity ([1]; EPHA5, 1.0E-06 M) was 92 % of control, the Residual activity ([1]; EPHA5, 1.0E-07 M) was 115 % of control and the Residual activity ([2]; LIMK1, 1.0E-06 M) was 90 % of control. For the same molecule, the Residual activity ([2]; LIMK1, 1.0E-07 M) was 103 % of control, the Residual activity ([3]; DAPK1, 1.0E-06 M) was 116 % of control and the Residual activity ([3]; DAPK1, 1.0E-07 M) was 126 % of control. For the same molecule, the Residual activity ([4]; PDK1, 1.0E-06 M) was 79 % of control, the Residual activity ([4]; PDK1, 1.0E-07 M) was 93 % of control and the “Residual activity, VEGF-R3” value ([5]; assay conc. 1.0E-06 M) was 112 % of control. For the same molecule, the “Residual activity, VEGF-R3” value ([5]; assay conc. 1.0E-07 M) was 120 % of control, the Residual activity ([6]; EPHA7, 1.0E-06 M) was 58 % of control and the Residual activity ([6]; EPHA7, 1.0E-07 M) was 84 % of control. The “Residual activity, SNARK” value ([7]; assay conc. 1.0E-06 M) was 87 % of control, the “Residual activity, SNARK” value ([7]; assay conc. 1.0E-07 M) was 88 % of control and the Residual activity ([8]; 1.0E-06 M) was 128 % of control. For the same molecule, the Residual activity ([8]; 1.0E-07 M) was 99 % of control, the Residual activity ([9]; 1.0E-06 M) was 95 % of control and the Residual activity ([9]; 1.0E-07 M) was 105 % of control. The Residual activity ([10]; ERK5, 1.0E-06 M) was 85 % of control and the Residual activity ([10]; ERK5, 1.0E-07 M) was 96 % of control.
